System: HIV (NL43, SG3, BAL1 or BL2)
Test: HIV infection of primary activated CD4 T-cells (p24 by flow cytometry or ELISA)
Type: cell-based
Text: Primary CD4 T-cells were activated with anti-CD3/28, infected with NL43, SG3, BAL1, or BL2 (FIG. 1A) or NL43 (FIGS. 1B and 1C), and cultured in the presence of the BET antagonist JQ1(+) or the control enantiomer JQ1(−). FIG. 1A provides the expression of p24Gag in cells as determined by flow cytometry. FIGS. 1B and 1C show viral production as measured in culture supernatants by ELISA.
Primary CD4 T-cells were activated with anti-CD3/28, then infected with HIV, NL43 or SG3, and cultured in the presence of JQ1(+) (1 μM or 0.1 μM) or media. At days 3, 6, 10 and 13 after infection, cell death was measured by percent of FSC/SSC (forward scatter/side scatter) as indicated in individual plots (FIGS. 8A and 8C). The expression of p24 in live cells was examined by flow cytometry and is shown as the percentage of p24+ cells (FIGS. 8B and 8D).
BET antagonists inhibit viral infection in primary activated CD4 T-cells. Specifically, the effect of the BET antagonist JQ1(+) on viral replication was tested in HIV-infected T-cells. Primary activated CD4 T-cells were infected with X4-tropic virus (NL43 or SG3) or R5-tropic virus (BAL1 or BL2) in the presence or absence of JQ1(+) (1 μM). Viral infection was measured by flow cytometry or ELISA at various days after infection.
Of note, mean fluorescence of p24 was unchanged in the presence of the active inhibitor, indicating there was not a non-specific toxic drug effect and supporting the observation that BET antagonism inhibits HIV production at late time points of infection in primary activated CD4 T-cells.

Compound: Cc1sc2c(c1C)C(c1ccc(Cl)cc1)=N[C@@H](CC(=O)OC(C)(C)C)c1nnc(C)n1-2 [JQ1(+), tert-butyl 2-((6S)-4-(4-chlorophenyl)-2,3,9-trimethyl-6H-thieno[3,2-f][1,2,4]triazolo[4,3-a][1,4]diazepin-6-yl)acetate]
- Viral infection at low concentration (primary CD4 T-cells, NL43, 0.1 μM): inhibition of viral infection was also observed
- HIV infection (viral production, ELISA) (primary CD4 T-cells, NL43, days 3 and 6 after infection, p<0.05): significantly inhibited
- Relative number of virus-expressing cells (percentage of p24+ cells) (primary activated CD4 T-cells, NL43 or SG3, 0.1 μM): still suppressed
- Levels of infection (primary activated CD4 T-cells, X4-tropic (NL43, SG3) or R5-tropic (BAL1, BL2) virus, 1 μM, flow cytometry or ELISA, various days): decrease
- Mean fluorescence of p24 (primary activated CD4 T-cells, in the presence of the active inhibitor): unchanged

From patent US9387231B2, “Compositions comprising a Brd4 antagonist and methods for the treatment of HIV” (THE CHILDREN'S HOSPITAL OF PHILADELPHIA, priority 2011, dated 2016)
